Tests used:
STEC cocktail [1] = format: cell-based
Salmonella spp. cocktail [2] = format: cell-based
[3] = tested on: L. monocytogenes cocktail; format: cell-based, Listeria monocytogenes
S. aureus cocktail [4] = format: cell-based, Staphylococcus aureus
Salmonella spp. cocktail [5] = assay: Minimum bactericidal concentration (MBC), plating of wells on selective media; format: cell-based
Description: (§1) A resazurin indicator-based, 96-well microplate dilution method (Elshikh et al., 2016) was used for in vitro determination of MIC and MBC of LAE, nisin and thymol against different foodborne pathogens. Overnight cultures were grown in TSB (37° C.) and a cocktail of STEC, Salmonella spp., L. monocytogenes and S. aureus was prepared by mixing equal volumes of the three corresponding strains to obtain approximately 8 log10 CFU/mL of the pathogens. Bacterial cells were washed by centrifugation at 8000 rpm/10 minutes, and cell pellets were re-suspended in the same volume of sterile Mueller Hinton Broth (MHB; Difco).
(§2) FIG. 1 illustrates the resazurin indicator-based, 96-well microplate dilution method for MIC determination of different antimicrobials against bacterial cocktails. A 100,000 IU/mL concentration of nisin (VWR) was dissolved in HCl 0.02N; 10% thymol (VWR) was prepared in concentrated ethanol; and 10% LAE (MB) was prepared in sterile distilled water. All antimicrobials were sterilized by filtration through a 0.22 μm filter (Pall; Ann Arbor, Mich.).). Each antimicrobial was diluted in sterile MHB to obtain a final concentration of 50,000 IU/mL of nisin, 5% thymol, and 5% LAE. Using a multi-channel pipette (Eppendorf; Haoppauge, N.Y.), one hundred μL of each antimicrobial in MHB was dispensed into a row in a 96-well microplate. Subsequent serial dilutions of the antimicrobials were made in MHB using the multi-channel pipette by transferring and mixing 50 μL of each compound to obtain antimicrobial concentrations of nisin (50,000-390.6 IU/mL), thymol (5-0.039%) and LAE (5-0.039%). Bacterial cocktails were diluted 1:100 in a sterile MHB to reach a concentration of approximately 6 log10 CFU/mL, with 50 μL of each cocktail added to the respective well. […]
(§3) The MBC was determined by directly inoculating the content of wells with concentrations higher than the MIC value on selective growth media. […] The MBC value was determined as the lowest concentration when there were no bacterial colonies observed (Elshikh et al., 2016).

[6] = tested on: L. monocytogenes cocktail; assay: as above; format: cell-based, Listeria monocytogenes
Description: as §1, §2, §3

S. aureus cocktail [7] = assay: as above; format: cell-based, Staphylococcus aureus
Description: as §1, §2, §3

[8] = tested on: all tested bacterial pathogens (STEC, Salmonella spp., L. monocytogenes, S. aureus); format: cell-based
[9] = cited from earlier work
STEC cocktail [10] = format: cell-based; remark: listed apart in the source

CCCCCCCCCCCC(=O)N[C@@H](CCCN=C(N)N)C(=O)OCC [LAE, lauric arginate]
MIC, LAE (STEC cocktail [1]; 24 h at 37° C.): 0.078 % (V/V) | MIC, LAE (Salmonella spp. cocktail [2]; 24 h at 37° C.): 0.078 % (V/V) | MIC, LAE ([3]; 24 h at 37° C.): 0.078 % (V/V) | MIC, LAE (S. aureus cocktail [4]; 24 h at 37° C.): 0.078 % (V/V) | MBC, LAE (Salmonella spp. cocktail [5]): 0.625 % (V/V) | MBC, LAE [6]: 0.313 % (V/V) | MBC, LAE (S. aureus cocktail [7]): 0.313 % (V/V) | concentration of LAE that inhibited all tested bacterial pathogens [8]: 0.078% | metabolism of LAE in the human body [9]: rapidly metabolized in the human body to lauric acid and arginine

Cc1ccc(C(C)C)c(O)c1 [Thymol, thymol]
MIC, Thymol (STEC cocktail [1]): 1.25 % (W/V) | MIC, Thymol (Salmonella spp. cocktail [2]): 0.625 % (W/V) | MIC, Thymol [3]: 0.625 % (W/V) | MIC, Thymol (S. aureus cocktail [4]): 0.156 % (W/V) | MBC, Thymol (STEC cocktail [10]): 2.5 % (W/V) | MBC, Thymol (Salmonella spp. cocktail [5]): 2.5 % (W/V) | MBC, Thymol [6]: 1.25 % (W/V) | MBC, Thymol (S. aureus cocktail [7]): 1.25 % (W/V)

nisin
MIC, Nisin (STEC cocktail [1]; 24 h at 37° C.): Nil (key: Nil indicates there was no growth inhibition, nor killing effect at ≤ 50,000 IU/mL) | MIC, Nisin (Salmonella spp. cocktail [2]; 24 h at 37° C.): Nil (key: Nil indicates there was no growth inhibition, nor killing effect at ≤ 50,000 IU/mL) | MIC, Nisin ([3]; 24 h at 37° C.): Nil (key: Nil indicates there was no growth inhibition, nor killing effect at ≤ 50,000 IU/mL) | MIC, Nisin (S. aureus cocktail [4]; 24 h at 37° C.): Nil (key: Nil indicates there was no growth inhibition, nor killing effect at ≤ 50,000 IU/mL) | MBC, Nisin (STEC cocktail [10]): Nil (key: Nil indicates there was no growth inhibition, nor killing effect at ≤ 50,000 IU/mL) | MBC, Nisin (Salmonella spp. cocktail [5]): Nil (Nil indicates there was no growth inhibition, nor killing effect at ≤ 50,000 IU/mL) | MBC, Nisin [6]: Nil (Nil indicates there was no growth inhibition, nor killing effect at ≤ 50,000 IU/mL) | MBC, Nisin (S. aureus cocktail [7]): Nil (Nil indicates there was no growth inhibition, nor killing effect at ≤ 50,000 IU/mL) | antibacterial activity of nisin in MIC and MBC experiments [8]: very poor antibacterial activity
